Experimental data published in PMC7531601, “Exploiting Lactoferricin (17–30) as a Potential Antimicrobial and Antibiofilm Candidate Against Multi-Drug-Resistant Enteroaggregative Escherichia coli” (Frontiers in Microbiology, 2020).
Ends that are not written are not given here.

Assays:
[1] = test system: MDR-EAEC strains; details: MDR-EAEC strains (n = 3)
Procedure: (§1) Initially, characterization of Lfcin (17–30) was performed by determining its minimum inhibitory concentration (MIC), minimum bactericidal concentration (MBC), in vitro stability assays (high-end temperatures, the physiological concentration of cationic salts and proteases), and in vitro safety assays (sheep erythrocyte hemolysis and secondary cell line cytotoxicity) (Supplementary Files S1–S3). The membrane permeabilization effect of Lfcin (17–30) was assessed by flow cytometry, whereas outer and inner membrane permeability of MDR-EAEC strains treated with 1 × and 2 × MIC levels of Lfcin (17–30) was carried out based on the nitrocefin activity as well as the release of cytoplasmic β-galactosidase activity, respectively (Supplementary File S4). Further, Lfcin (17–30) was evaluated for its antibacterial activity against beneficial lactobacilli (L. acidophilus MTCC 10307 and L. rhamnosus MTCC 1408) (Supplementary File S5).

[2] = test system: L. acidophilus MTCC 10307; details: 1X MIC, MRS broth, 37°C, 48 h, absorbance 600 nm and plating
Procedure: as §1
(§2) Besides, the safety aspect of Lfcin (17-30) against beneficial gut lactobacilli was also investigated. […] After incubation at 37 °C for 48 h, the antibacterial effect of AMP on commensal lactobacilli was measured by observing the absorbance at 600 nm (Thermo Scientific Multiskan GO) as well as drawing two 10 µl samples from each well and plating them onto MRS agar plates. […]

[3] = test system: L. rhamnosus MTCC 1408; details: 1X MIC, MRS broth, 37°C, 48 h, absorbance 600 nm and plating
Procedure: as §1, §2

[4] = test system: G. mellonella larvae infected with MDR-EAEC (a cocktail of three strains); assay: G. mellonella larval survival; type: in vivo, Galleria mellonella; details: uninfected larvae, MIC dose, up to 120 h pi
Procedure: The final instar of G. mellonella larvae was utilized for performing the in vivo assays ([Morgan et al., 2014]). The larvae (ca. 200–250 mg) inoculated with aliquots of MDR-EAEC suspensions (10 μl) by injection using Hamilton syringe (26 gauge) via the last right pro-leg were incubated at 37°C and the observations were noted. The larvae kept in a sterile environment were provided with ad lib food during the experiment.
The determined LD50 dose for each MDR-EAEC strain in the larvae was validated and employed further in the in vivo experiments to evaluate the antibacterial efficacy of Lfcin (17–30).
Galleria mellonella larvae were grouped 40 per group for in vivo antimicrobial testing of Lfcin (17–30) as follows: group I (MDR-EAEC infection control), groups II and III (infection + treatment groups), group IV (PBS control), and group V [Lfcin(17–30) control]. Optimized LD50 dose of MDR-EAEC (a cocktail of three strains) was administered to larvae of groups I to III, while MIC dose of Lfcin (17–30) and Meropenem was administered 3 h post-infection (pi) in groups II and III, respectively. Larval group IV was injected with sterile PBS, whereas MIC dose of Lfcin (17–30) was administered in group V. […]

[5] = test system: G. mellonella larvae; assay: LDH cytotoxicity assay of larval haemolymph; type: in vivo, Galleria mellonella
Procedure: Galleria mellonella larvae were grouped 40 per group for in vivo antimicrobial testing of Lfcin (17–30) as follows: group I (MDR-EAEC infection control), groups II and III (infection + treatment groups), group IV (PBS control), and group V [Lfcin(17–30) control]. Optimized LD50 dose of MDR-EAEC (a cocktail of three strains) was administered to larvae of groups I to III, while MIC dose of Lfcin (17–30) and Meropenem was administered 3 h post-infection (pi) in groups II and III, respectively. Larval group IV was injected with sterile PBS, whereas MIC dose of Lfcin (17–30) was administered in group V.
The larvae were then observed for their survival rate, melanization (Supplementary Information S7), MDR-EAEC counts (Supplementary Information S8), hemocyte density (Supplementary Information S9) ([Wand et al., 2013]), lactate dehydrogenase (LDH) cytotoxicity assay (Supplementary Information S10) ([Gibreel and Upton, 2013]), and histopathology (Supplementary Information S11) ([Perdoni et al., 2014]), at an interval of 6 h till 24 h, followed by 24-h interval up to 120 h pi.
G. mellonella (n=3 larvae per group) were analysed for the production of LDH, as a marker of cell damage, at an interval of 6 h pi for 24 h, followed by 24 h interval till 96 h pi using QuantiChrom LDH cytotoxicity assay kit, according to the manufacturer’s instructions. The positive and negative controls used in this study were […]. The absorbance was read using ELISA plate reader at 500 nm; the haemolymph from untreated larvae served as background control and the cytotoxicity was calculated as, Cytotoxicity (%) = (ODSample - ODControl)/ (ODTotal Lysis - ODControl) x 100, wherein, sample is the control absorbance of treated cell; control is the experimental absorbance of the untreated cell control and total lysis is the absorbance of Triton X-100 treated cells.

In the case of FKCRRWQWRMKKLG [Lfcin (17–30)], the MBC ([1]; at least 99.9% killing after 24 h) was 32 µM, the MIC ([1]; micro-broth dilution) was 32 µM and the “antimicrobial effect on beneficial lactobacilli” value [2] was “non-significant”. For the same sequence, the “antimicrobial effect on beneficial lactobacilli” value [3] was “non-significant”, the survival rate [4] was 100% and the LDH cytotoxicity ([5]; infected larvae treated 3 h pi) was “cytotoxicity remained increased up to 48 h pi”. For the same sequence, the LDH cytotoxicity ([5]; uninoculated larvae treated with MIC dose) was “significantly increased cytotoxicity was observed at 6 to 18 h pi”.
